Data taken from paper PMC5775816 (Journal of medicinal chemistry, 2016).
“Also recorded” adds a separate entry of the source.

How the values were obtained:
PAR4 [1] = molecular target: T1, PAR4 (Homo sapiens, UniProt Q96RI0); assay: PAC-1 binding assay; assay type: cell-based; settings: for PAR4 activity (in words): PAR4-AP, PAC-1
T1 sequence (Q96RI0 18-385): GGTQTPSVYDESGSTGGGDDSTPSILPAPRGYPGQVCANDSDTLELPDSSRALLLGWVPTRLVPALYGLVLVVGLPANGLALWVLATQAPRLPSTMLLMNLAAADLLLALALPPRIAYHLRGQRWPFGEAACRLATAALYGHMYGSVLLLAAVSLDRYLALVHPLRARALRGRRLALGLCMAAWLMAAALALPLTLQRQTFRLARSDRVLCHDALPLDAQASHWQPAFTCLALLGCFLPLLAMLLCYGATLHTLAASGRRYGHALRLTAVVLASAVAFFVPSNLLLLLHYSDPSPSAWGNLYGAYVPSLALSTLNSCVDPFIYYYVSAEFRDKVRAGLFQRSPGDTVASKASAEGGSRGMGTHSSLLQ

In vivo rat PK = settings: plasma, iv, 0.2 mg/kg
PAR4 [2] = molecular target: T1, PAR4; assay: Progressive fold-shift inhibition assay/Schild analysis; assay type: cell-based
[3] = Predicted hepatic clearance in human microsomes; assay type: in vitro ADME
[4] = Predicted hepatic clearance in rat microsomes; assay type: in vitro ADME
PAR4 [5] = molecular target: T2, PAR4 (Homo sapiens, UniProt Q96RI0); settings: literature antagonists; cited from earlier work
T2 sequence (Q96RI0 48-385): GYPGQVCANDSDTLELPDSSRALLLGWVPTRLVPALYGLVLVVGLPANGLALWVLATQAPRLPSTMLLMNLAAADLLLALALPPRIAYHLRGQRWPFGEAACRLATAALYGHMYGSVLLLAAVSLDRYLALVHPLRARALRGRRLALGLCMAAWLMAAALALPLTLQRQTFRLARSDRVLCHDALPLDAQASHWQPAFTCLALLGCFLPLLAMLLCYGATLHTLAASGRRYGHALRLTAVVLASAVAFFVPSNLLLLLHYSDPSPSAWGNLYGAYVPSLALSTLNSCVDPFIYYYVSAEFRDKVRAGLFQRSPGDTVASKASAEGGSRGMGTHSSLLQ

PAR4 [6] = settings: read-out: EC50 for PAR4; thrombin as agonist; background statement; cited from earlier work

For `COc1ccc(-c2c(CO)n(C)c3ccc(C(F)(F)F)cc23)cn1` [9a], the “PAR4 activity (in words)” value (PAR4 [1]) was “devoid of PAR4 activity”.
For `COc1ccc(-c2c(CO)n(Cc3ccccc3)c3ccc(OC(F)(F)F)cc23)cn1` [9b], the “PAR4 activity (in words)” value (PAR4 [1]) was “devoid of PAR4 activity”.
In the case of `COc1ccc(-c2c(CO)n(Cc3ccccc3F)c3ccc(OC(F)(F)F)cc23)cn1` [9c], the “PAR4 activity (in words)” value (PAR4 [1]) is reported as “devoid of PAR4 activity”.
In the case of `COc1cccc(Cn2c(CO)c(-c3ccc(OC)nc3)c3cc(C(F)(F)F)ccc32)c1` [9d], the “PAR4 activity (in words)” value (PAR4 [1]) is reported as “devoid of PAR4 activity”.
In the case of `COc1ccc(-c2c(CO)n(Cc3cccc(F)c3)c3ccc(OC(F)(F)F)cc23)cn1` [9e], the “PAR4 activity (in words)” value (PAR4 [1]) is reported as “devoid of PAR4 activity”.
In the case of `COc1ccc(-c2c(CO)n(Cc3cccc(Cl)c3)c3ccc(OC(F)(F)F)cc23)cn1` [9h], the “PAR4 activity (in words)” value (PAR4 [1]) is reported as “devoid of PAR4 activity”.
With `OCc1c(-c2cncnc2)c2cc(OC(F)(F)F)ccc2n1Cc1ccc(F)cc1F` [10b] the “PAR4 activity (in words)” value (PAR4 [1]) was “inactive”.
In the case of `CSc1ncc(-c2c(CO)n(Cc3ccc(F)cc3F)c3ccc(OC(F)(F)F)cc23)cn1` [10c], the IC50 (PAR4 [1]) is reported as 1490 nM.
For `COc1nn2cc(-c3c(CO)n(Cc4ccccc4Cl)c4ccc(OC(F)(F)F)cc34)nc2s1` [10h], the clearance at 6 h (In vivo rat PK) was 45 mL/min/kg, the “mode of PAR4 inhibition” value (PAR4 [2]) was “complex mode of PAR4 inhibition; also recorded: mixed competitive/noncompetitive mechanism of action” and the “human CLHEP” value [3] was 1.1 mL/min/kg. The “rat CLHEP” value [4] was 36.1 mL/min/kg.
`COc1ccc(-c2c(CO)n(Cc3ccccc3Cl)c3cc(OC(F)(F)F)ccc23)cn1` [11d] showed an IC50 (PAR4 [1]) of 930 nM.
For `CCOC(=O)c1ccc(-c2nn(Cc3ccccc3)c3ccccc23)cc1` [compound 1], the “activity upon γ-thrombin activation (in words)” value (PAR4 [5]) is listed as “lack of activity”.
For Thrombin, the EC50 (PAR4 [6]) is given as about 5 nM.
